{"source": "PubChem BioAssay (NCI)", "assay_in_all_cases": "NCI tumour cell line growth inhibition, 48 h", "key": {"[1]": {"test_system": "EKVX NSCLC"}, "[2]": {"test_system": "UO-31 renal"}, "[3]": {"test_system": "KM12 colon"}, "[4]": {"test_system": "OVCAR-8 ovarian"}, "[5]": {"test_system": "M19-MEL melanoma"}, "[6]": {"test_system": "HCC-2998 colon"}, "[7]": {"test_system": "HCT-15 colon"}, "[8]": {"test_system": "OVCAR-3 ovarian"}, "[9]": {"test_system": "KM20L2 colon"}, "[10]": {"test_system": "CCRF-CEM leukemia"}, "[11]": {"test_system": "MOLT-4 leukemia"}, "[12]": {"test_system": "SK-MEL-28 melanoma"}, "[13]": {"test_system": "SK-OV-3 ovarian"}, "[14]": {"test_system": "P388/ADR leukemia"}, "[15]": {"test_system": "COLO 205 colon"}, "[16]": {"test_system": "K-562 leukemia"}, "[17]": {"test_system": "SW-620 colon"}, "[18]": {"test_system": "NCI-H226 lung"}, "[19]": {"test_system": "OVCAR-4 ovarian"}, "[20]": {"test_system": "NCI-H522 lung"}, "[21]": {"test_system": "HL-60(TB) leukemia"}, "[22]": {"test_system": "RXF 393 renal"}, "[23]": {"test_system": "HOP-92 NSCLC"}, "[24]": {"test_system": "U251 CNS"}, "[25]": {"test_system": "CAKI-1 renal"}, "[26]": {"test_system": "UACC-62 melanoma"}, "[27]": {"test_system": "DMS 114 small cell lung"}, "[28]": {"test_system": "XF 498 CNS"}, "[29]": {"test_system": "SN12C renal"}, "[30]": {"test_system": "NCI/ADR-RES ovarian"}, "[31]": {"test_system": "MALME-3M melanoma"}, "[32]": {"test_system": "RPMI-8226 leukemia"}, "[33]": {"test_system": "SNB-75 CNS"}, "[34]": {"test_system": "SF-539 CNS"}, "[35]": {"test_system": "IGROV1 ovarian"}, "[36]": {"test_system": "OVCAR-5 ovarian"}, "[37]": {"test_system": "NCI-H460 lung"}, "[38]": {"test_system": "HCT-116 colon"}, "[39]": {"test_system": "DLD-1 colon"}, "[40]": {"test_system": "LOX IMVI melanoma"}, "[41]": {"test_system": "NCI-H23 lung"}, "[42]": {"test_system": "SF-268 CNS"}, "[43]": {"test_system": "UACC-257 melanoma"}, "[44]": {"test_system": "SF-295 CNS"}, "[45]": {"test_system": "HOP-18 NSCLC"}, "[46]": {"test_system": "MCF7 breast"}, "[47]": {"test_system": "A549 NSCLC"}, "[48]": {"test_system": "HOP-62 NSCLC"}, "[49]": {"test_system": "A498 renal"}, "[50]": {"test_system": "DMS 273 small cell lung"}, "[51]": {"test_system": "HT29 colon"}, "[52]": {"test_system": "SNB-78 CNS"}, "[53]": {"test_system": "SK-MEL-2 melanoma"}, "[54]": {"test_system": "SNB-19 CNS"}, "[55]": {"test_system": "SK-MEL-5 melanoma"}, "[56]": {"test_system": "SN12K1 renal"}, "[57]": {"test_system": "P388 leukemia"}}, "note": "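Assay format: 96-well plates, 48-hour exposure. GI50 is the concentration that inhibits growth by half. Definition used: TGI = concentration required for complete inhibition of growth.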"}
{"smiles": "COc1cc2ccc(=O)oc2cc1O", "values": [{"measurement": "TGI", "setting": "[1]", "result": 226, "unit": "µM"}, {"measurement": "TGI", "setting": "[2]", "result": 183, "unit": "µM"}, {"measurement": "TGI", "setting": "[3]", "result": "> 625", "unit": "µM"}, {"measurement": "TGI", "setting": "[4]", "result": 424, "unit": "µM"}, {"measurement": "TGI", "setting": "[5]", "result": 328, "unit": "µM"}, {"measurement": "GI50", "setting": "[6]", "result": 56.4, "unit": "µM"}, {"measurement": "TGI", "setting": "[6]", "result": 305, "unit": "µM"}, {"measurement": "TGI", "setting": "[7]", "result": "> 625", "unit": "µM"}, {"measurement": "TGI", "setting": "[8]", "result": 330, "unit": "µM"}, {"measurement": "TGI", "setting": "[9]", "result": 614, "unit": "µM"}, {"measurement": "TGI", "setting": "[10]", "result": 328, "unit": "µM"}, {"measurement": "TGI", "setting": "[11]", "result": 223, "unit": "µM"}, {"measurement": "TGI", "setting": "[12]", "result": "> 625", "unit": "µM"}, {"measurement": "TGI", "setting": "[13]", "result": 509, "unit": "µM"}, {"measurement": "TGI", "setting": "[14]", "result": 103, "unit": "µM"}, {"measurement": "TGI", "setting": "[15]", "result": "> 625", "unit": "µM"}, {"measurement": "TGI", "setting": "[16]", "result": 562, "unit": "µM"}, {"measurement": "TGI", "setting": "[17]", "result": "> 625", "unit": "µM"}, {"measurement": "TGI", "setting": "[18]", "result": 283, "unit": "µM"}, {"measurement": "TGI", "setting": "[19]", "result": "> 172", "unit": "µM"}, {"measurement": "TGI", "setting": "[20]", "result": 618, "unit": "µM"}, {"measurement": "TGI", "setting": "[21]", "result": 271, "unit": "µM"}, {"measurement": "TGI", "setting": "[22]", "result": "> 569", "unit": "µM"}, {"measurement": "TGI", "setting": "[23]", "result": "> 522", "unit": "µM"}, {"measurement": "TGI", "setting": "[24]", "result": 455, "unit": "µM"}, {"measurement": "TGI", "setting": "[25]", "result": 401, "unit": "µM"}, {"measurement": "TGI", "setting": "[26]", "result": 161, "unit": "µM"}, {"measurement": "TGI", "setting": "[27]", "result": 335, "unit": "µM"}, {"measurement": "TGI", "setting": "[28]", "result": 337, "unit": "µM"}, {"measurement": "TGI", "setting": "[29]", "result": 282, "unit": "µM"}, {"measurement": "TGI", "setting": "[30]", "result": 277, "unit": "µM"}, {"measurement": "TGI", "setting": "[31]", "result": 489, "unit": "µM"}, {"measurement": "TGI", "setting": "[32]", "result": 438, "unit": "µM"}, {"measurement": "TGI", "setting": "[33]", "result": 175, "unit": "µM"}, {"measurement": "TGI", "setting": "[34]", "result": 201, "unit": "µM"}, {"measurement": "TGI", "setting": "[35]", "result": 423, "unit": "µM"}, {"measurement": "TGI", "setting": "[36]", "result": 514, "unit": "µM"}, {"measurement": "TGI", "setting": "[37]", "result": 139, "unit": "µM"}, {"measurement": "TGI", "setting": "[38]", "result": "> 625", "unit": "µM"}, {"measurement": "TGI", "setting": "[39]", "result": 552, "unit": "µM"}, {"measurement": "TGI", "setting": "[40]", "result": "> 625", "unit": "µM"}, {"measurement": "TGI", "setting": "[41]", "result": "> 414", "unit": "µM"}, {"measurement": "TGI", "setting": "[42]", "result": "> 585", "unit": "µM"}, {"measurement": "TGI", "setting": "[43]", "result": 270, "unit": "µM"}, {"measurement": "TGI", "setting": "[44]", "result": 79.7, "unit": "µM"}, {"measurement": "TGI", "setting": "[45]", "result": 521, "unit": "µM"}, {"measurement": "TGI", "setting": "[46]", "result": 476, "unit": "µM"}, {"measurement": "TGI", "setting": "[47]", "result": 320, "unit": "µM"}, {"measurement": "TGI", "setting": "[48]", "result": 411, "unit": "µM"}, {"measurement": "TGI", "setting": "[49]", "result": 208, "unit": "µM"}, {"measurement": "TGI", "setting": "[50]", "result": 99.6, "unit": "µM"}, {"measurement": "TGI", "setting": "[51]", "result": "> 625", "unit": "µM"}, {"measurement": "TGI", "setting": "[52]", "result": "> 625", "unit": "µM"}, {"measurement": "TGI", "setting": "[53]", "result": 577, "unit": "µM"}, {"measurement": "TGI", "setting": "[54]", "result": 432, "unit": "µM"}, {"measurement": "TGI", "setting": "[55]", "result": 302, "unit": "µM"}, {"measurement": "TGI", "setting": "[56]", "result": 236, "unit": "µM"}, {"measurement": "TGI", "setting": "[57]", "result": 233, "unit": "µM"}]}
